Laboratory results published in US8822510B2, “Substituted 3-phenyl-1,2,4-Oxadiazole compounds” (Bristol-Myers Squibb Company, priority 2010, dated 2014).

System: circulating lymphocytes
Test: Blood Lymphocyte Reduction Assay (BLR) in Rodents
Type: in vivo
Settings: Lewis rats, oral, vs vehicle group
Method: Lewis rats were dosed orally with test article (as a solution or suspension in the vehicle) or vehicle alone (polyethylene glycol 300, “PEG300”). Blood was drawn at 4 hr and 24 h by retro-orbital bleeding. Blood lymphocyte counts were determined on an ADVIA 120 Hematology Analyzer (Siemens Healthcare Diagnostics). The results were measured as a reduction in the percentage of circulating lymphocytes as compared to the vehicle treated group at the 4 hr and 24 hr measurement. The results represent the average results of all animals within each treatment group (n=3-4).
The following examples were tested in the Blood Lymphocyte Reduction assay (BLR) described hereinabove and the results are shown in Table C for rats.

| Compound | % REDUCTION IN LYMPHOCYTES AT 4 HR. (10.0 mg/kg) [%] | % REDUCTION IN LYMPHOCYTES AT 4 HR. (20.0 mg/kg) [%] |
| --- | --- | --- |
| CC(C)(CCCc1nc(-c2ccc(CN3CC(C(=O)O)C3)cc2)no1)c1ccc(F)cc1 [Example 128, 1-(4-(5-(4-(4-fluorophenyl)-4-methylpentyl)-1,2,4-oxadiazol-3-yl)benzyl)-3-azetidinecarboxylic acid] | 80 | – |
| O=C(O)C[C@@H]1CC(c2ccc(-c3noc(CCC4(c5ccccc5)CCCCC4)n3)cc2)=NO1 [Example 133, (S)-(3-(4-(5-(2-(1-phenylcyclohexyl)ethyl)-1,2,4-oxadiazol-3-yl)phenyl)-4,5-dihydro-5-isoxazolyl)acetic acid] | – | 84 |
